Source: patent US20220389009A1, “SUBSTITUTED 1,6-NAPHTHYRIDINE INHIBITORS OF CDK5” (Goldfinch Bio, Inc., priority 2019, published 2022)

How the values were obtained:
[1] = biological target: CDK5/p25 (Homo sapiens, UniProt Q00535); assay: CDK5 mobility shift assay (enzymatic activity of CDK5/p25); type: biochemical; details: for IC50: 0.154 nM CDK5/p25, FL peptide 29, 60 min at room temperature, read-out: CDK5 IC50; for CDK5/CDK2 specificity: fold more active against CDK5 than CDK2
Protocol: (§1) Compound potency was measured via a change in the enzymatic activity of CDK5/p25, and optionally of CDK2/CycA2. Enzymes, CDK5/p25 and CDK2/CycA2, were sourced from Carna Biosciences (Cat #04-106 and 04-103, respectively). Test compound stocks were diluted in 100% DMSO and serially diluted 3-fold in a 384-well plate using a TECAN EVO200 (TECAN). Staurosporine was used as a reference control compound in all assays.
(§2) Twenty nL of compound were transferred into a 384-well plate (Greiner 781201) using an Echo550 (Labcyte Inc). Enzyme, ATP, and 10 mM MgCl2 were preincubated at room temperature with the compound in assay buffer (50 mM HEPES pH 7.5, 1 mM EGTA, 0.01% Brij-35, 0.05% BSA, 2 mM DTT) for 30 minutes. Peptide substrate (FL peptide 29 (Perkin Elmer) for CDK5/p25; FL Peptide 18 (Perkin Elmer) for CDK2/CycA2) was added to initiate the reaction. The final assay contained 0.154 nM CDK5/p25 or 1.25 nM CDK2/CycA2, […] (for CDK5/p25) or 37 μM (for CDK2/CycA2) ATP, and 1.5 μM of the appropriate peptide substrate. The final DMSO concentration was <1%.
(§3) The CDK5/p25 reaction was incubated at room temperature for 60 min. The CDK2/CycA2 reaction was incubated at room temperature for 120 min. The reactions were quenched by the addition of 70 μL stopping buffer containing 0.5 M EDTA. Samples were analyzed using the EZ Reader (Perkin Elmer).
(§4) The results were expressed as % vehicle, where % vehicle=100×(U−C2)/(C1−C2), where U is the signal of sample, C1 is the average of the high controls (signal with no compound added), and C2 is the average of low controls (signal with the buffer in place of enzyme). The ICso is determined by fitting the percentage of inhibition as a function of compound concentrations using a 4-parameter fit defined as follows.
(§5) Y=Bottom+(Top−Bottom)/(1+10^((LobIC50-X)*Hill Slope)), where X is the log of the compound concentration, Y is the % vehicle or response at X, Top and Bottom are the plateaus in the same units as Y, and the Hill's Slope is unitless, and the ICso is the half-maximal inhibitory concentration.

[2] = biological target: CDK2/CycA2 (Homo sapiens, UniProt P24941); assay: CDK2 mobility shift assay (enzymatic activity of CDK2/CycA2); type: biochemical; details: 1.25 nM CDK2/CycA2, 37 μM ATP, FL Peptide 18, 120 min at room temperature; read-out: CDK2 IC50
Protocol: as §1, §2, §3, §4, §5

Sequence of CDK5/p25 (Q00535 whole entry): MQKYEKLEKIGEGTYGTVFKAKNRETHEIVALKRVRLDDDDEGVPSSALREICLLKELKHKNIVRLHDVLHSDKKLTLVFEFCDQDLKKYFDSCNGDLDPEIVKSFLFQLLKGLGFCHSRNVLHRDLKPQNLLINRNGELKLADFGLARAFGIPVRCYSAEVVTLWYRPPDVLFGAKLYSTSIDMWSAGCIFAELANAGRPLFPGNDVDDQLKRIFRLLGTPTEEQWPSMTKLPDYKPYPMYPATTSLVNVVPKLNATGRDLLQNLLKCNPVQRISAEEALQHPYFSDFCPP
Sequence of CDK5/p25 (Q15078 99-307 partner limits assumed): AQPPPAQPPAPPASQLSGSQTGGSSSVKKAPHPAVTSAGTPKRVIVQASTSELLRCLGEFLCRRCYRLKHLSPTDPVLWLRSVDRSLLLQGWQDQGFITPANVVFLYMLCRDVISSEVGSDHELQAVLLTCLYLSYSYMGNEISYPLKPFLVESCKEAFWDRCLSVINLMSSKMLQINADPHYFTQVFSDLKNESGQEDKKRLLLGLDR

Structure (SMILES) | IC50 [1] | IC50 [2] | CDK5/CDK2 specificity [1]
CC(c1ccc2cnc(Nc3ccc(-c4cccnc4)cc3F)cc2n1)C1CCN(C)CC1 (stereo not drawn) [Compound 319] | < 10 nM | 100 to 1000 nM | ++ (greater than 10-fold and less than or equal to 100-fold more active against CDK5 than CDK2)
CN1CCC(S(=O)(=O)c2ccc3cnc(Nc4cccc(N5CCOCC5)c4)cc3n2)CC1 [Compound 273] | < 10 nM | 100 to 1000 nM | +++ (greater than 100-fold more active against CDK5 than CDK2)
CCc1ccc(F)c(Nc2cc3nc(S(=O)(=O)C4CCN(C)CC4)ccc3cn2)c1 [Compound 379] | < 10 nM | 100 to 1000 nM | +++ (greater than 100-fold more active against CDK5 than CDK2)
COC(=O)CCc1nnc(Nc2cc3nc(S(=O)(=O)C4CCN(C)CC4)ccc3cn2)s1 [Compound 264] | > 1000 nM | > 1000 nM | + (10-fold or less more active against CDK5 than CDK2)
COc1cncc(Nc2cc3nc(S(=O)(=O)C4CCN(C)CC4)ccc3cn2)c1 [Compound 267] | 10 to 100 nM | 100 to 1000 nM | ++ (greater than 10-fold and less than or equal to 100-fold more active against CDK5 than CDK2)
CN1CCC(S(=O)(=O)c2ccc3cnc(Nc4ccc(S(=O)(=O)N(C)C)cn4)cc3n2)CC1 [Compound 257] | 10 to 100 nM | 10 to 100 nM | + (10-fold or less more active against CDK5 than CDK2)
CN1CCC(S(=O)(=O)c2ccc3cnc(Nc4ccc(-n5cncn5)cc4)cc3n2)CC1 [Compound 279] | < 10 nM | 100 to 1000 nM | ++ (greater than 10-fold and less than or equal to 100-fold more active against CDK5 than CDK2)
CN1CCC(S(=O)(=O)c2ccc3cnc(Nc4cccc(N5CCNC5=O)c4)cc3n2)CC1 [Compound 285] | < 10 nM | 10 to 100 nM | ++ (greater than 10-fold and less than or equal to 100-fold more active against CDK5 than CDK2)
CN1CCC(S(=O)(=O)c2ccc3cnc(Nc4ccc(-c5ccc(F)cc5)cc4F)cc3n2)CC1 [Compound 183, N-{3,4′-difluoro-[1,1′-biphenyl]-4-yl}-2-(1-methylpiperidin-4-ylsulfonyl)-1,6-naphthyridin-7-amine] | < 10 nM | > 1000 nM | +++ (greater than 100-fold more active against CDK5 than CDK2)
CN(C)C(=O)c1ccn(-c2ccc(Nc3cc4nc(S(=O)(=O)C5CCN(CC6COC6)CC5)ccc4cn3)c(F)c2)n1 [Compound 338] | < 10 nM | 100 to 1000 nM | +++ (greater than 100-fold more active against CDK5 than CDK2)
CC(c1ccc2cnc(Nc3ccc(-c4cccc(C(N)=O)c4)cc3F)cc2n1)C1CCN(C)CC1 (stereo not drawn) [Compound 410, 3′-fluoro-4′-([2-[1-(1-methylpiperidin-4-yl)ethyl]-1,6-naphthyridin-7-yl]amino)-[1,1′-biphenyl]-3-carboxamide] | < 10 nM | 100 to 1000 nM | +++ (greater than 100-fold more active against CDK5 than CDK2)

The next lines start with results.

IC50 [1] | IC50 [2] | Structure (SMILES) | CDK5/CDK2 specificity [1]
100 to 1000 nM | > 1000 nM | COC(c1ccc2cnc(Nc3ccc(-n4cccn4)cc3F)cc2n1)C1CCN(C)CC1 (single isomer, unassigned) [Compound 387, N-[2-fluoro-4-(pyrazol-1-yl)phenyl]-2-[methoxy(1-methylpiperidin-4-yl)methyl]-1,6-naphthyridin-7-amine] | ++ (greater than 10-fold and less than or equal to 100-fold more active against CDK5 than CDK2)
10 to 100 nM | > 1000 nM | CN1CCC(C(O)c2ccc3cnc(Nc4ccc(-n5ccc(CO)n5)cc4F)cc3n2)CC1 (single isomer, unassigned) [Compound 247, [7-([2-fluoro-4-[3-(hydroxymethyl)pyrazol-1-yl]phenyl]amino)-1,6-naphthyridin-2-yl](1-methylpiperidin-4-yl)methanol] | ++ (greater than 10-fold and less than or equal to 100-fold more active against CDK5 than CDK2)
< 10 nM | 10 to 100 nM | CN1CCC(C(C)(O)c2ccc3cnc(Nc4ccc(CN5CCOCC5)cc4F)cc3n2)CC1 (stereo not drawn) [Compound 353] | ++ (greater than 10-fold and less than or equal to 100-fold more active against CDK5 than CDK2)
< 10 nM | 10 to 100 nM | CN1CCC(C(C)(O)c2ccc3cnc(Nc4ccc(-c5cccc(=O)n5C)cc4F)cc3n2)CC1 (stereo not drawn) [Compound 354] | ++ (greater than 10-fold and less than or equal to 100-fold more active against CDK5 than CDK2)
< 10 nM | 100 to 1000 nM | CC(c1ccc2cnc(Nc3ccc(-n4ccc(CO)n4)cc3F)cc2n1)C1CCN(C)CC1 (single isomer, unassigned) [Compound 188, [1-[3-fluoro-4-([2-[1-(1-methylpiperidin-4-yl)ethyl]-1,6-naphthyridin-7-yl]amino)phenyl]pyrazol-3-yl]methanol] | +++ (greater than 100-fold more active against CDK5 than CDK2)
100 to 1000 nM | > 1000 nM | CN1CCC(C(O)(c2ccc3cnc(Nc4ccc(-n5cccn5)cc4F)cc3n2)C(F)(F)F)CC1 (single isomer, unassigned) [Compound 343, 2,2,2-trifluoro-1-(7-((2-fluoro-4-(1H-pyrazol-1-yl)phenyl)amino)-1,6-naphthyridin-2-yl)-1-(1-methylpiperidin-4-yl)ethan-1-ol] | ++ (greater than 10-fold and less than or equal to 100-fold more active against CDK5 than CDK2)
100 to 1000 nM | > 1000 nM | CN1CCC2(CC1)CC2c1ccc2cnc(Nc3ccc(-n4cccn4)cc3F)cc2n1 (stereo not drawn) [Compound 164, N-[2-fluoro-4-(pyrazol-1-yl)phenyl]-2-[6-methyl-6-azaspiro[2.5]octan-1-yl]-1,6-naphthyridin-7-amine] | ++ (greater than 10-fold and less than or equal to 100-fold more active against CDK5 than CDK2)
< 10 nM | 10 to 100 nM | CN1CCC(C(C)(O)c2ccc3cnc(Nc4ccc(-n5cccn5)cc4F)cc3n2)CC1 (single isomer, unassigned) [Compound 216, 1-(7-[[2-fluoro-4-(pyrazol-1-yl)phenyl]amino]-1,6-naphthyridin-2-yl)-1-(1-methylpiperidin-4-yl)ethanol] | ++ (greater than 10-fold and less than or equal to 100-fold more active against CDK5 than CDK2)
< 10 nM | 100 to 1000 nM | C=C(c1ccc2cnc(Nc3ccc(-n4ccc(CO)n4)cc3F)cc2n1)C1CCN(C)CC1 [Compound 168, [1-[3-fluoro-4-([2-[1-(1-methylpiperidin-4-yl)ethenyl]-1,6-naphthyridin-7-yl]amino)phenyl]pyrazol-3-yl]methanol] | +++ (greater than 100-fold more active against CDK5 than CDK2)
< 10 nM | 10 to 100 nM | Fc1cc(-n2cccn2)ccc1Nc1cc2nc(C(F)(F)C3CCNCC3)ccc2cn1 [Compound 169, 2-[difluoro(piperidin-4-yl)methyl]-N-[2-fluoro-4-(pyrazol-1-yl)phenyl]-1,6-naphthyridin-7-amine] | ++ (greater than 10-fold and less than or equal to 100-fold more active against CDK5 than CDK2)
100 to 1000 nM | > 1000 nM | CN1CCC(C(C)(O)c2ccc3cnc(Nc4ccc(-n5cccn5)cc4F)cc3n2)CC1 (single isomer, unassigned) [Compound 205, 1-(7-[[2-fluoro-4-(pyrazol-1-yl)phenyl]amino]-1,6-naphthyridin-2-yl)-1-(1-methylpiperidin-4-yl)ethanol] | ++ (greater than 10-fold and less than or equal to 100-fold more active against CDK5 than CDK2)
10 to 100 nM | > 1000 nM | CN1CCC(=Cc2ccc3cnc(Nc4ccc(-n5ccc(CO)n5)cc4F)cc3n2)CC1 [Compound 150, [1-[3-fluoro-4-([2-[(1-methylpiperidin-4-ylidene)methyl]-1,6-naphthyridin-7-yl]amino)phenyl]pyrazol-3-yl]methanol] | ++ (greater than 10-fold and less than or equal to 100-fold more active against CDK5 than CDK2)
